Data published in paper PMC10046037, “GABRG2 Variants Associated with Febrile Seizures” (Biomolecules, 2023).

Molecular target: T1, α1β3γ2 GABAA receptor, γ2R224X variant (Homo sapiens, UniProt P14867+P28472)
T1 construct: expressed in transfected cells; host or cells: HEK293T
T1 sequence (P14867 28-456): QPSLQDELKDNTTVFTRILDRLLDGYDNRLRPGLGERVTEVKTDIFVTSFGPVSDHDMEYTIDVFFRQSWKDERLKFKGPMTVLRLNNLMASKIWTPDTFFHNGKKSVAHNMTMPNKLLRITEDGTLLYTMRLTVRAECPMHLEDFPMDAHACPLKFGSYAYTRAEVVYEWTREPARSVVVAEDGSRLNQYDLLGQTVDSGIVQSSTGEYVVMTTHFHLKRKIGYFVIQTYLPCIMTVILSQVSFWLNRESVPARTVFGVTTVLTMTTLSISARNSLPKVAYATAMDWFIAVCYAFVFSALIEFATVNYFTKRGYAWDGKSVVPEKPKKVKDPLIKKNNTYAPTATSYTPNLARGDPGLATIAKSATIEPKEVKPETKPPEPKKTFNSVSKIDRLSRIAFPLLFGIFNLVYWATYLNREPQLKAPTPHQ
T1 sequence (P28472 1-473 isoform P28472-2): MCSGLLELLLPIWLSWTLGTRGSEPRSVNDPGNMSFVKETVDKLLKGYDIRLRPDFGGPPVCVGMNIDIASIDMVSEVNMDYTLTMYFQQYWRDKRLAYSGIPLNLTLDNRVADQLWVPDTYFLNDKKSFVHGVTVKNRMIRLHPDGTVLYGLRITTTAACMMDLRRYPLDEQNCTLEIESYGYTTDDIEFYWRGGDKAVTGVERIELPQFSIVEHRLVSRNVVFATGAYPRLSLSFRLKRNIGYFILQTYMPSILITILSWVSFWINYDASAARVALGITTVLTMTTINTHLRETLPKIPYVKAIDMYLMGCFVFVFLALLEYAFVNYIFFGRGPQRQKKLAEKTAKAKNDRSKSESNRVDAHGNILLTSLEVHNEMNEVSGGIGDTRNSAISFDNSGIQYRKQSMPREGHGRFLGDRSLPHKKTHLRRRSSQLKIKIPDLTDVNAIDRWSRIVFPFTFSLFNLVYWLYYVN
Test: Automated patch clamp of GABA-elicited currents (SyncroPatch 384PE), γ2R224X
Type: cell-based
Settings: mean
Method: The coding sequences of human α1 (GABRA1, NM_000806), β3 (GABRB3, NM_021912), and γ2 (GABRG2, NM_198904.2) GABAAR subunits were subcloned into the pcDNA3.1 expression vectors (Invitrogen, Waltham, MA, USA).
HEK293T cells (ATCC, CRL-11268) were cultured at 37 °C in a humidified 5% CO2 incubator and maintained in Dulbecco’s modified Eagle’s medium (Invitrogen) supplemented with 10% fetal bovine serum (Life Technologies, Carlsbad, CA, USA), and 100 IU/mL of penicillin/streptomycin (Life Technologies). For the expression experiments, 4 × 10^5 cells were transfected using polyethylenimine (PEI) reagent (40 kD, Polysciences, Warrington, PA, USA) at a DNA: to transfection reagent ratio of 1:2.5 and harvested 36 h after transfection. To express WT and variant α1β3γ2 receptors, a total of 3 µg of α1, β3, and γ2 (WT or mutant) subunit cDNAs were transfected at a ratio of 1:1:1 into 60 mm culture dishes. For the mock-transfected condition, an empty pcDNA3.1 vector was added for a final cDNA transfection amount of 3 μg. For the electrophysiology experiments, 2.5 × 10^5 cells were plated in 100 mm culture dishes and transfected after 24 h with 3 μg of cDNA of each α1, β3, γ2 (wild-type or mutant) subunit, using X-tremeGENE HP DNA transfection Reagent (Roche Diagnostics, Basel, Switzerland), following the manufacturer’s protocol. Recordings were obtained forty-eight hours after transfection.
Whole-cell patch clamp recordings were conducted according to the manufacturer’s standard procedure for the SyncroPatch 384 [31]. Whole-cell voltage-clamp recordings were performed at room temperature on HEK293T cells 48 h after transfection with GABAAR subunits, using the SyncroPatch 384PE (Nanion Technologies, Munich, Germany). Cells, at a concentration of 400,000 cells/mL, were harvested in suspension in external solution containing 140 mM of NaCl, 2 mM of CaCl2, 4 mM of KCl, 1 mM of MgCl2, 5 mM of glucose, and 10 mM of HEPES (pH 7.4 with NaOH, 298 mOsm). The cells were loaded in a multi-hole (4 holes per well) 384-well Nanion patch clamp (NPC) chip with a thick borosilicate glass bottom and an average resistance pore size of […]. Built-in electrophysiological protocols were used, and the data were digitized using PatchControl 384 (Nanion Technologies) application. Using PatchControl 384, electrophysiological parameters, such as seal resistance, capacitance, and series resistance, were determined for each well after the application of a test pulse, and subsequently monitored over time. […] The currents were normalized to the maximal response of each well, and the concentration–response curves were calculated from single-point additions. The EC50 values for each variant or wild-type receptor were calculated across multiple wells for each experimental condition.

Deactivation (1 mM GABA for 5 ms, HEK293T, -80 mV): 350.1 ms
IMAX (maximal GABA-evoked peak current) (1 mM GABA for 5 ms, HEK293T): 0.85 nA
IMAX variant/IMAX WT (1 mM GABA): 42.52%
Rise Time (10–90% rise time, 1 mM GABA for 5 ms, HEK293T): 72.64 ms
SMILES: NCCCC(=O)O [GABA, γ-aminobutyric acid]
